Data set [1] deals with human inducible NO-synthase (Homo sapiens, UniProt P35228). Briefly: Measurement of inducible NO-synthase activity ([3H]arginine conversion). The data set is classed as biochemical. Conditions: crude cytosolic fraction containing human inducible NO-synthase; 0.1 μM arginine; 45 to 60 min at 37° C.; read-out: Inhibition of iNOS activity [measured as -logIC50 (mol/l)] (converted). The protocol: The assay is performed in 96well microtiter F-plates (Greiner, Frickenhausen, FRG) in a total volume of 100 μl in the presence of 100 nM calmodulin, 226 μM CaCl2, 477 μM MgCl2, 5 μM flavin-adenine-dinucleotide (FAD), 5 μM flavin mononucleotide (FMN), 0.1 mM NADPH, 7 mM glutathione, 10 μM BH4 and 100 mM HEPES pH 7.2. Arginine concentrations are 0.1 μM for enzyme inhibition experiments. 150000 dpm of [^3H]arginine are added to the assay mixture. Enzyme reaction is started by the addition of 4 μg of a crude cytosolic fraction containing human inducible NO-synthase and the reaction mixture is incubated for 45 to 60 min at 37° C. Enzyme reaction is stopped by adding 10 μl of 2M MES-buffer pH 5.0. 50 μl of the incubation mixture are transferred into a MADP N65 filtration microtiter plate (Millipore, Eschborn, FRG) containing already 50 μl of AG-50W-X8 cation exchange resin (Biorad, München, FRG). The resin in the Na loaded form is pre-equilibrated in water and 70 μl (corresponding to 50 μl dry beads) are pipetted under heavy stirring with a 8 channel pipette into the filtration plate. After pipetting 50 μl of the enzyme reaction mixture onto the filtration plates, the plates are placed on a filtration manifold (Porvair, Shepperton, UK) and the flow through is collected in Pico scintillation plates (Packard, Meriden, CT). The resin in the filtration plates is washed with 75 μl of water (1×50 μl and 1×25 μl) which is also collected in the same plate as the sample. The total flow through of 125 μl is mixed with 175 μl of Microscint-40 scintillation cocktail (Packard) and the scintillation plate is sealed with TopSeal P-foil (Packard). Scintillation plates are counted in a scintillation counter.
For the measurement of inducible NO-synthase-inhibiting potencies of compounds increasing concentrations of inhibitors were included into the incubation mixture. IC50-values were calculated from the percent inhibition at given concentrations by nonlinear least square fitting.

From patent publication US20080125460A1, “Imidazopyridine-Derivatives As Inducible No-Synthase Inhibitors” (Altana Pharma AG, priority 2003, published 2008) come the findings set out here.

As a reminder, the melting point is the temperature of the solid-liquid transition. `COc1ccnc(CCc2nc3cc(-c4ccncc4)cnc3[nH]2)c1` [Example 3, 2-[2-(4-Methoxypyridin-2-yl)ethyl]-6-(pyridin-4-yl)-3H-imidazo-[4,5-b]pyridine] registered a melting point of 237 to 238 °C. The IC50 in data set [1] is 55 nM. Take `COc1ccnc(CCc2nc3cc(-c4ccc(-c5ccccc5)s4)cnc3[nH]2)c1` [Example 13, 2-[2-(4-Methoxy-pyridin-2-yl)-ethyl]-6-(5-phenyl-thiophen-2-yl)-3H-imidazo[4,5-b]pyridine]: in data set [1], the IC50 is 30.9 to 245 nM. In turn, `COc1ccnc(CCc2nc3cc(-c4ccco4)cnc3[nH]2)c1` [Example 1, 6-Furan-2-yl-[2-(4-methoxypyridin-2-yl)ethyl]-3H-imidazo[4,5-b]pyridine] returned a melting point of 147 to 148 °C. For the same compound, the IC50 in data set [1] was 49 nM. As to `COc1ccnc(CCc2nc3cc(-c4nc5cc(C)ccc5[nH]4)cnc3[nH]2)c1` [Example 8, 2-[2-(4-Methoxy-pyridin-2-yl)-ethyl]-6-(5-methyl-1H-benzoimidazol-2-yl)-3H-imidazo[4,5-b]pyridine], in data set [1], the IC50 was 30.9 to 245 nM. In the case of `COc1ccnc(CCc2nc3cc(-c4ccc5[nH]ccc5c4)cnc3[nH]2)c1` [Example 6, 6-(1H-Indol-5-yl)-2-[2-(4-methoxypyridin-2-yl)ethyl)-3H-imidazo-[4,5-b]pyridine], the melting point is 241 to 242 °C. The IC50 in data set [1] was 49 nM. On the same counts, the results for `COc1ccnc(CCc2nc3cc(-c4ccoc4)cnc3[nH]2)c1` [Example 2, 6-Furan-3-yl-[2-(4-methoxypyridin-2-yl)ethyl]-3H-imidazo[4,5-b]pyridine] are 193 to 194 °C and 45.7 nM. Regarding `COc1ccnc(CCc2nc3cc(-c4csc5ccccc45)cnc3[nH]2)c1` [Example 9, 6-Benzo[b]thiophen-3-yl-2-[2-(4-methoxy-pyridin-2-yl)-ethyl]-3H-imidazo[4,5-b]pyridine], the IC50 in data set [1] is 30.9 to 245 nM. Consider `COc1ccnc(CCc2nc3cc(-c4ccsc4)cnc3[nH]2)c1` [Example 5, 2-[2-(4-Methoxypyridin-2-yl)ethyl]-6-(thiophen-3-yl)-3H-imidazo-[4,5-b]pyridine], for which the melting point is 154 to 155 °C. Also, the IC50 in data set [1] was 34.7 nM. With `COc1ccnc(CCc2nc3cc(-c4nc5ccccc5[nH]4)cnc3[nH]2)c1` [Example 7, 6-(1H-Benzoimidazol-2-yl)-2-[2-(4-methoxy-pyridin-2-yl)-ethyl]-3H-imidazo[4,5-b]pyridine], in data set [1], the IC50 is 30.9 to 245 nM. Turning to `COc1ccnc(CCc2nc3cc(-c4cccs4)cnc3[nH]2)c1` [Example 4, 2-[2-(4-Methoxypyridin-2-yl)ethyl]-6-(thiophen-2-yl)-3H-imidazo-[4,5-b]pyridine], the melting point fell in the range of 132 to 133 °C. Besides, in data set [1], the IC50 was 24.5 nM.

Consider `COc1ccnc(CCc2nc3cc(-c4cc5ccccc5s4)cnc3[nH]2)c1` [Example 11, 6-Benzo[b]thiophen-2-yl-2-[2-(4-methoxy-pyridin-2-yl)-ethyl]-3H-imidazo[4,5-b]pyridine], for which, in data set [1], the IC50 is 30.9 to 245 nM. On the same count and under the same terms, in the case of `COc1ccnc(CCc2nc3cc(-c4ccc(C)s4)cnc3[nH]2)c1` [Example 12, 2-[2-(4-Methoxy-pyridin-2-yl)-ethyl]-6-(5-methyl-thiophen-2-yl)-3H-imidazo[4,5-b]pyridine] it was 30.9 to 245 nM; in that of `COc1ccnc(CCc2nc3cc(-c4cc5ccccc5o4)cnc3[nH]2)c1` [Example 10, 6-Benzofuran-2-yl-2-[2-(4-methoxy-pyridin-2-yl)-ethyl]-3H-imidazo[4,5-b]pyridine], 30.9 to 245 nM.
